From publication PMC9961069 (Metabolites, 2023)

What was measured:
[1] = tested on: T1, DHFR in MDA-MB-468 lysates; assay: Lysate cellular thermal shift assay (CETSA) for DHFR; type: binding, Human; settings: 10 μM, MDA-MB-468 lysate, 45 °C for 3 min, DMSO at 37 °C = 100%
T1 construct: reactions containing 55 μg MDA-MB-468 lysate; endogenous in cells; host or cells: MDA-MB-468
Method: Trypsinized MDA-MB-468 cells were harvested by centrifugation at 200× g for 5 min and washed with PBS supplemented with EDTA-free PIC (Roche) and flash frozen for storage at −80 °C. Cells were lysed by resuspension in 60 μL PBS/PIC per 1 × 10^6 cells. Cells were lysed by three freeze-thaw cycles, where cells were frozen in an ethanol/dry ice bath for 3 min, immediately followed by incubation in a 37 °C water bath for 3 min. The insoluble fraction was removed by centrifugation at 20,000× g for 20 min at 4 °C. The supernatant containing the soluble lysate was removed and saved for subsequent steps.
After incubation, each reaction was transferred to a 1.5 mL tube and centrifuged at 20,000× g for 20 min at 4 °C to remove the insoluble proteins. After centrifugation, 18 μL of supernatant was carefully removed from each reaction, without disturbing any pelleted aggregates, and added to 4.5 μL of 5× SDS-PAGE loading buffer. 11 μL of each reaction was loaded onto a gel in duplicate, and proteins were detected by Western blot (as described below). Resulting band densities were fit to the Boltzmann equation to determine the melting temperature (Tm):(3) y=Bottom+Top−Bottom/1+e^Tm−x/Slope
To rescue the thermal degradation of DHFR by inhibitors, samples containing 10 μM inhibitor, 55 μg lysate, and 1% DMSO in a total volume of 28 μL in DHFR buffer were prepared in PCR tubes and incubated at room temperature for 20 min. Two DMSO-only controls were also prepared. Reactions containing inhibitors were then incubated at 45 °C for 3 min. One DMSO-only control was also heated at 45 °C for 3 min, and the other control was heated at 37 °C for 3 min. The soluble protein fraction was separated from the insoluble proteins by centrifugation, and proteins were separated by SDS-PAGE, as described above, and analyzed via Western blot, as described below. Each experiment was repeated 3 times.
Proteins were electrophoretically separated on a 10% gel, and proteins were transferred to a methanol-activated PVDF membrane using the Trans-Blot Turbo transfer system (Bio-Rad) for 7 min at 1.3 A and 25 V in Trans-Blot Turbo transfer buffer (Bio-Rad). Membranes were blocked with 5% skim milk w/v in TBS-T (20 mM Tris, 150 mM NaCl, 0.05% Tween-20) for 1 h at room temperature. […] The horseradish peroxidase (HRP)-linked anti-mouse IgG secondary antibody (NA931, Cytiva; 1:3000) was added for 1 h at room temperature in 5% skim milk w/v in TBS-T. Signal was detected by adding Immobilon Forte Western HRP Substrate (Millipore), and chemiluminescence was captured on a Sapphire Biomolecular Imager (Azure Biosystems). Band densities were determined using ImageJ (Fiji). The band intensity of DHFR was normalized to the thermostable loading control SOD1 [22].

[2] = tested on: STAT3 transcriptional activity in U3A STAT3 luciferase reporter cell line; assay: STAT3 luciferase reporter assay; type: cell-based; settings: for Inhibition of STAT3-dependent luciferase activity: 0.02–20 μM, OSM 10 ng/mL
Method: The STAT3-dependent luciferase reporter assay was performed as previously reported. One day prior to the assay, the U3A STAT3 luciferase reporter cell line was seeded in a 96-well plate at 8000 cells per well. Cells were then incubated with compounds at the indicated concentration, and each well was treated with either media control or stimulated with 10 ng/mL oncostatin M (OSM) and incubated for six hours at 37 °C. Luciferase activity was quantified using the Bright-Glo Luciferase Assay system (Promega) and a Luminoskan Ascent Luminometer (Labsystems). Collected luminescence readings were normalized to DMSO-treated controls. Stimulation with (+OSM) gave luminescence values around 2.5 times that of the unstimulated control (−OSM). Quadruplicates were averaged and plotted with error bars representing standard deviation. Each condition was performed in quadruplicate on two separate occasions (n = 2) with representative data shown. Statistical significance was determined using Ordinary one-way ANOVA with a Dunnett multiple comparison test.

Compound	Normalized Band Density (%) of soluble DHFR [1]	Normalized Band Density (%) of soluble DHFR ([1]; listed as Cycloguanil)	STAT3-dependent luciferase activity ([2]; 20 nM, U3A)	Inhibition of STAT3-dependent luciferase activity [2]	Normalized Band Density (%) of soluble DHFR ([1]; listed as Pyrimethamine)
CC1(C)N=C(N)N=C(N)N1c1ccc(Cl)cc1 [Cyc, Cycloguanil]	greater than 100%	125.67 ± 39.6%	significantly inhibited	potent inhibition of luciferase activity	–
CCc1nc(N)nc(N)c1-c1ccc(Cl)cc1 [Pyr, Pyrimethamine]	greater than 100%	–	–	do not reach full STAT3 inhibition until µM concentrations	104.12 ± 33.5%
CC1(C)N=C(N)N=C(N)N1c1ccc(CCCCc2ccc(S(=O)(=O)F)cc2)c(Cl)c1 [compound 127159]	99.96 ± 26.2%	–	–	do not reach full STAT3 inhibition until µM concentrations	–
